Reference: US20240425484A1, “INHIBITORS OF TYK2” (Atomwise Inc., priority 2023, published 2024)

How the values were obtained:
[1] = target: T1, TYK2-JH2 (Homo sapiens, UniProt P29597); experiment: TYK2-JH2 HTRF binding assay (ligand efficiency); details: calculated (Equation 1) from IC50 of the TYK-JH2 binding assay
T1 construct: TYK JH2 enzyme mix (ChemPartner: CP20210818A-BV); purchased ChemPartner CP20210818A-BV
Protocol: The following example describes the TYK2-JH2 HTRF binding assay used to determine the ligand efficiency of the TYK2 inhibitors.
To calculate ligand efficiency, Equation 1 is applied: […]
in which IC50 comes from the binding assay used to determine compound potency.
TYK JH2 enzyme mix (ChemPartner: CP20210818A-BV), tracer (ChemPartner: CP-0029472-051) and mAb Anti-6HIS Tb cryptate Gold (Cisbio: Cat No. 61HI2TLA) mix were prepared in assay buffer (10 mM MgCl2, 20 mM HEPES pH 7.5, 0.01% Triton X-100, 1 mM DTT). Compounds diluted in DMSO (Final Concentrations 0.1 to 0.000005 [μM]) and enzyme mix (0.5 nM Final Concentration) were added to 384 well plates, briefly centrifuged and incubated at room temperature for 10 minutes. After incubation, tracer mix (Tracer-35 nM final concentration); (MAb Anti-6HIS Tb cryptate Gold-0.5X final)) was added, briefly centrifuged then incubate at room temperature 60 minutes. After incubation, plates were read by Envision TR-FRET (Ex340/Em495/520) protocol (PerkinElmer-Envision 2104 multilabel plate reader).

[2] = Mouse pharmacokinetic study, oral administration; format: in vivo; details: male, mouse plasma, PO at 5 mg/kg; for half-life: read-out: Half-life t1/2; for Cmax: read-out: Maximum plasma concentration Cmax; for AUC(0-inf): read-out: Total systemic exposure AUCinf
Protocol: The following example describes the methods used to evaluate the pharmacokinetics of TYK2 inhibitors in vivo following dosing of a compound of the invention.
The pharmacokinetics of test compounds were evaluated in either male CD-1 mice or male C57BL/6 mice when administered by oral gavage and IV bolus injection. The animals were allowed free access to food and water before administration. The plasma samples were analyzed by LC-MS/MS and the concentration of test compound at each time point was determined by linear regression. Pharmacokinetic parameters were calculated from the plasma concentrations by non-compartmental modeling using WinNonlin 8.2.
Oral composition. To prepare a pharmaceutical composition for oral delivery, the test articles described herein were dissolved in DMSO and then mixed with necessary volume of PEG400 followed by 0.9% sterile saline or 5% dextrose in water or 5% Kolliphor HS 15 in saline to provide the final concentrations of 0.5 mg/mL or 1 mg/mL (Table 8). The resultant mixtures were suitable for oral administration.
The PK parameters measured in mouse plasma after treatment with TYK2 inhibitor compounds via PO (oral administration) at 5 mg/kg are summarized below in Tables 9-11.

[3] = Brain exposure pharmacokinetic study in Sprague Dawley rats; format: in vivo, rat; details: male Sprague Dawley rats, oral gavage 10 mg/kg, plasma, CSF
Protocol: The brain exposure of exemplary compounds, e.g., 1, 2, and 4 were evaluated in male Sprague Dawley rats after oral gavage administration at 10 mg/kg. The formulation was 5% DMSO+10% PEG400 in saline. Rats were fasted overnight with food returned 4 hours post-dose. CSF was collected by direct needle puncture into the cisterna magna.
(§1) For both rat and mouse studies, brain tissue was washed with 3 volumes of saline prior to homogenization. Brain tissue was homogenized with 3 volumes (v/w) of phosphate buffered saline. Plasma, brain homogenate, and CSF samples (rat only) were analyzed by LC-MS/MS and the concentration of test compound at each time point was determined by linear regression.
(§2) Pharmacokinetic parameters were calculated from the plasma, brain, and CSF concentrations by non-compartmental modeling using WinNonlin 8.2.

[4] = Brain exposure pharmacokinetic study in C57BL/6 mice; format: in vivo, mouse; details: male C57BL/6 mice, oral gavage 5 mg/kg, plasma
Protocol: The brain exposure of 18 was evaluated in male C57BL/6 mice after oral gavage administration at 5 mg/kg. The formulation was 10% DMSO+40% PEG400 in saline. Mice were provided free access to food and water without fasting. Terminal sample collection of plasma and brain tissue were collected at […], 0.25, 0.5, 1, 2, and 4 hours post-dose with n=3 at each timepoint.
as §1, §2

T1 sequence (P29597 589-875 limits assumed): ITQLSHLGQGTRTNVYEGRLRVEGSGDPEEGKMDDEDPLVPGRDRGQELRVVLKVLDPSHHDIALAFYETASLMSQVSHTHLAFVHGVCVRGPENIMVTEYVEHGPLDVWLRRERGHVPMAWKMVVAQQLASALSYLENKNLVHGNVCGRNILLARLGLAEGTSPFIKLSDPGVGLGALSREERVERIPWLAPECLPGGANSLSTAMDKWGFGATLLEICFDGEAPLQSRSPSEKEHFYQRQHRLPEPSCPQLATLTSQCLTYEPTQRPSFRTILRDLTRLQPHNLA

| Compound | Ligand Efficiency [1] | half-life [2] [h] | Cmax [2] [ng/mL] | AUC(0-inf) [2] [ng·h/mL] | Brain Kpu, u [3] | Brain Kpu, u [4] |
| --- | --- | --- | --- | --- | --- | --- |
| C[C@@H](c1ccc(Nc2cc(Nc3ncccc3S(C)(=O)=O)ncn2)nc1)N1CC2(COC2)C1 [Compound 1, (S)—N^4-(5-(1-(2-oxa-6-azaspiro[3.3]heptan-6-yl)ethyl)pyridin-2-yl)-N^6-(3-(methylsulfonyl)pyridin-2-yl)pyrimidine-4,6-diamine] | ††† (†††: >0.39) | 1 to 1.5 | < 800 | 1000 to 2000 | †† (††0.1-0.2 u) |  |
| C[C@@H](c1ccc(Nc2cc(Nc3ncc(F)cc3S(C)(=O)=O)ncn2)nc1)N1CC2(COC2)C1 [Compound 2, (S)—N^4-(5-(1-(2-oxa-6-azaspiro[3.3]heptan-6-yl)ethyl)pyridin-2-yl)-N^6-(5-fluoro-3-(methylsulfonyl)pyridin-2-yl)pyrimidine-4,6-diamine] | ††† (†††: >0.39) | 1 to 1.5 | > 1500 | > 2000 | † (†<0.1 u) |  |
| C[C@@H](c1ccc(Nc2cc(Nc3ncccc3S(C)(=O)=O)ncn2)nc1)N(C)C [Compound 4, (S)—N^4-(5-(1-(dimethylamino)ethyl)pyridin-2-yl)-N^6-(3-(methylsulfonyl)pyridin-2-yl)pyrimidine-4,6-diamine] | ††† (†††: >0.39) | 1 to 1.5 | < 800 | < 1000 | ††† (††† >0.2 u) |  |
| Cc1cccc(Nc2cc(Nc3ncccc3S(C)(=O)=O)ncn2)n1 [Compound 18, N^4-(6-methylpyridin-2-yl)-N^6-(3-(methylsulfonyl)pyridin-2-yl)pyrimidine-4,6-diamine] | ††† (†††: >0.39) |  |  |  |  | ††† (††† >0.2 u) |
